The structures appear in SMILES notation.

This assay has as its target T1, hCRTH2 (Homo sapiens, UniProt Q9Y5Y4).
T1 construct: expressed in transfected cells; host or cells: HEK (human embryonic kidney) cells expressing hCRTH2; membrane preparation
T1 sequence (Q9Y5Y4 1-395): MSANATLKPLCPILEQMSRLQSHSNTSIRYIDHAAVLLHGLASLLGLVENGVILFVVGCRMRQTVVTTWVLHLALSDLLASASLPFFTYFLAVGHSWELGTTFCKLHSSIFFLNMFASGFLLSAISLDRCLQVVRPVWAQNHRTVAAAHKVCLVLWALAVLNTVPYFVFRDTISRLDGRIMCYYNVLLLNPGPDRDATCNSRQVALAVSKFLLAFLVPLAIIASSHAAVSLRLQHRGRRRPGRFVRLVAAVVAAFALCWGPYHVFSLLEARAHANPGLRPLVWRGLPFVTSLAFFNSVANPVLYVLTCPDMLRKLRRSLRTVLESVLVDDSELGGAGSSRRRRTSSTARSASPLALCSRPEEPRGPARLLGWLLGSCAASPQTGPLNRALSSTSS
As to the kind of experiment: Radioligand binding assay ([3H]PGD2 competition, HEK-hCRTH2 membranes). To be noted: [3H]PGD2 competition, Table B. Summed up: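 Filter-bound radioactivity was counted by scintillation after 60 min incubations at room temperature. Membranes (8-20 μg) from HEK cells expressing hCRTH2 competed test ligands against 3.0 nM [3H]PGD2 in Tris-HCl pH 7.4 buffer with EDTA and 2 mM MnCl2; 10 μM PGD2 set non-specific binding.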
As for `O=C(O)CCCCc1nc2cc(C(=O)N[C@@H]3CCSc4ccccc43)ccc2nc1-c1ccc(Cl)cc1` [compound 569, (R)-5-(3-(4-chlorophenyl)-7-(thiochroman-4-ylcarbamoyl)quinoxalin-2-yl)pentanoic acid], the Ki – broadly, a measure of affinity in units of concentration, obtained from inhibition or displacement – fell in the range of 0.1 to 2 nM.

`O=C(O)CCCCc1nc2cc(C(=O)N[C@@H]3CCCCc4ccccc43)ccc2nc1-c1ccc(Cl)cc1` [compound 570, (R)-5-(3-(4-chlorophenyl)-7-((6,7,8,9-tetrahydro-5H-benzo[7]annulen-5-yl)carbamoyl)quinoxalin-2-yl)pentanoic acid] had a Ki of 2.1 to 20 nM. The figure for `C[C@H](NC(=O)c1ccc2nc(-c3ccc(F)cc3)c(CCCCC(=O)O)nc2c1)c1ccc(F)c2ccccc12` [compound 571, (S)-5-(7-((1-(4-fluoronaphthalen-1-yl)ethyl)carbamoyl)-3-(4-fluorophenyl)quinoxalin-2-yl)pentanoic acid] is 2.1 to 20 nM. The figure for `C[C@@H](NC(=O)c1ccc2nc(-c3ccc(F)cc3)c(CCCCC(=O)O)nc2c1)c1ccc(F)c2ccccc12` [compound 572, (R)-5-(7-((1-(4-fluoronaphthalen-1-yl)ethyl)carbamoyl)-3-(4-fluorophenyl)quinoxalin-2-yl)pentanoic acid] is 20.1 to 200 nM; for `O=C(O)CCCCc1nc2cc(C(=O)N[C@@H]3COc4ccccc43)ccc2nc1-c1ccccc1` [compound 573, (S)-5-(7-((2,3-dihydrobenzofuran-3-yl)carbamoyl)-3-phenylquinoxalin-2-yl)pentanoic acid] it is 2.1 to 20 nM. The figure for `O=C(O)CCCCc1nc2cc(C(=O)N[C@H]3COc4ccccc43)ccc2nc1-c1ccccc1` [compound 574, (R)-5-(7-((2,3-dihydrobenzofuran-3-yl)carbamoyl)-3-phenylquinoxalin-2-yl)pentanoic acid] is 2.1 to 20 nM; for `CS(=O)(=O)N1CCC(NC(=O)c2ccc3nc(-c4ccccc4)c(CCCCC(=O)O)nc3c2)c2ccccc21` (stereo not drawn) [compound 575, 5-(7-((1-(methylsulfonyl)-1,2,3,4-tetrahydroquinolin-4-yl)carbamoyl)-3-phenylquinoxalin-2-yl)pentanoic acid] it is 0.1 to 2 nM; for `O=C(O)CCCCc1nc2cc(C(=O)NC3CC(=O)Nc4ccccc43)ccc2nc1-c1ccccc1` (stereo not drawn) [compound 576, 5-(7-((2-oxo-1,2,3,4-tetrahydroquinolin-4-yl)carbamoyl)-3-phenylquinoxalin-2-yl)pentanoic acid] it is 2.1 to 20 nM.

`O=C(O)CCCCc1nc2cc(C(=O)N3CC[C@H](c4ccc(F)cc4)C3)ccc2nc1-c1ccc(Cl)cc1` [compound 577, (R)-5-(3-(4-chlorophenyl)-7-(3-(4-fluorophenyl)pyrrolidine-1-carbonyl)quinoxalin-2-yl)pentanoic acid] registered a Ki of 0.1 to 2 nM. The figure for `O=C(O)CCCCc1nc2cc(C(=O)NC3CCCOc4ccccc43)ccc2nc1-c1ccc(Cl)cc1` (stereo not drawn) [compound 579, 5-(3-(4-chlorophenyl)-7-((2,3,4,5-tetralaydrobenzo[b]oxepin-5-yl)carbamoyl)quinoxalin-2-yl)pentanoic acid] is 2.1 to 20 nM; for `O=C(O)CCCCc1nc2cc(C(=O)N[C@H]3COc4ccccc43)ccc2nc1-c1ccc(Cl)cc1` [compound 580, (R)-5-(3-(4-chlorophenyl)-7-((2,3-dihydrobenzofuran-3-yl)carbamoyl)quinoxalin-2-yl)pentanoic acid] it is 0.1 to 2 nM; for `CC1(C)CC(NC(=O)c2ccc3nc(-c4ccc(Cl)cc4)c(CCCCC(=O)O)nc3c2)c2ccccc2O1` (stereo not drawn) [compound 582, 5-(3-(4-chlorophenyl)-7-((2,2-dimethylchroman-4-yl)carbamoyl)quinoxalin-2-yl)pentanoic acid] it is 0.1 to 2 nM.

`O=C(O)CCCCc1nc2cc(C(=O)N3CCC4(CCCc5ccccc54)C3)ccc2nc1-c1ccc(Cl)cc1` (stereo not drawn) [compound 583, 5-(3-(4-chlorophenyl)-7-(3,4-dihydro-2H-spiro [naphthalene-1,3′-pyrrolidin]-1′-ylcarbonyl)quinoxalin-2-yl)pentanoic acid] had a Ki of 0.1 to 2 nM. The figure for `O=C(O)CCCCc1nc2cc(C(=O)NC3C(=O)Nc4ccccc43)ccc2nc1-c1ccc(Cl)cc1` (stereo not drawn) [compound 584, 5-(3-(4-chlorophenyl)-7-((2-oxoindolin-3-yl)carbamoyl)quinoxalin-2-yl)pentanoic acid] is 2.1 to 20 nM; for `COc1ccc2c(c1)CCC[C@H]2NC(=O)c1ccc2nc(-c3ccc(F)cc3)c(CCCC(F)(F)C(=O)O)nc2c1` [compound 589, (R)-2,2-difluoro-5-(3-(4-fluorophenyl)-7-((6-methoxy-1,2,3,4-tetrahydro-naphthalen-1-yl)carbamoyl)quinoxalin-2-yl)pentanoic acid] it is 20.1 to 200 nM.

As for `O=C(O)CCCCc1nc2cc(C(=O)N3CCN(C(=O)OCc4ccccc4)CC3)ccc2nc1-c1ccc(Cl)cc1` [compound 590, 5-(7-(4-((benzyloxy)carbonyl)piperazine-1-carbonyl)-3-(4-chlorophenyl)quinoxalin-2-yl)pentanoic acid], the Ki lay in the range of 2.1 to 20 nM. The figure for `O=C(O)CCCCc1nc2cc(C(=O)N3CCCN(Cc4ccccc4)CC3)ccc2nc1-c1ccc(Cl)cc1` [compound 591, 5-(7-(4-benzyl-1,4-diazepane-1-carbonyl)-3-(4-chlorophenyl)quinoxalin-2-yl)pentanoic acid] is 2.1 to 20 nM; for `O=C(O)CCCCc1nc2cc(C(=O)N3CCN(C(=O)c4ccco4)CC3)ccc2nc1-c1ccc(Cl)cc1` [compound 592, 5-(3-(4-chlorophenyl)-7-(4-(furan-2-carbonyl)piperazine-1-carbonyl)quinoxalin-2-yl)pentanoic acid] it is 2.1 to 20 nM; for `CN(Cc1ccccc1)C(=O)c1ccc2nc(-c3ccc(Cl)cc3)c(CCCCC(=O)O)nc2c1` [compound 593, 5-(7-(benzyl(methyl)carbamoyl)-3-(4-chlorophenyl)quinoxalin-2-yl)pentanoic acid] it is 0.1 to 2 nM. The molecule `O=C(O)CCCCc1nc2cc(C(=O)N3CCN(c4ccncc4)CC3)ccc2nc1-c1ccc(Cl)cc1` [compound 594, 5-(3-(4-chlorophenyl)-7-(4-(pyridin-4-yl)piperazine-l-carbonyl)quinoxalin-2-yl)pentanoic acid] came in with a Ki of 201 to 700 nM. The figure for `N#Cc1cccnc1N1CCN(C(=O)c2ccc3nc(-c4ccc(Cl)cc4)c(CCCCC(=O)O)nc3c2)CC1` [compound 595, 5-(3-(4-chlorophenyl)-7-(4-(3-cyanopyridin-2-yl)piperazine-1-carbonyl)quinoxalin-2-yl)pentanoic acid] is 0.1 to 2 nM; for `O=C(O)CCCCc1nc2cc(C(=O)N3CCN(c4c(Cl)cncc4Cl)CC3)ccc2nc1-c1ccc(Cl)cc1` [compound 596, 5-(3-(4-chlorophenyl)-7-(4-(3,5-dichloropyridin-4-yl)piperazine-1-carbonyl)quinoxalin-2-yl)pentanoic acid] it is 0.1 to 2 nM; for `O=C(O)CCCCc1nc2cc(C(=O)N3CCN(c4cnccn4)CC3)ccc2nc1-c1ccc(Cl)cc1` [compound 597, 5-(3-(4-chlorophenyl)-7-(4-(pyrazin-2-yl)piperazine-1-carbonyl)quinoxalin-2-yl)pentanoic acid] it is 2.1 to 20 nM. The figure for `O=C(O)CCCCc1nc2cc(C(=O)N3CCN4CCCC4C3)ccc2nc1-c1ccc(Cl)cc1` (stereo not drawn) [compound 598, 5-(3-(4-chlorophenyl)-7-(octahydropyrrolo[1,2-a]pyrazine-2-carbonyl)quinoxalin-2-yl)pentanoic acid] is 2.1 to 20 nM.

Values taken from patent US9469615B2, “Quinoxalines and AZA-quinoxalines as CRTH2 receptor modulators” (Merck Sharp & Dohme Corp., priority 2010, dated 2016).
